Measured values published in patent US8680290B2, “Isoxazoline derivatives and their use as herbicides” (Syngenta Limited, priority 2004, dated 2014).

Legend:
[1] = system: Monocotyledonous and dicotyledonous test plants; experiment: Example B1 herbicidal action, application pre-emergence (Table B1b); type: in vivo; settings: 250 g/ha, evaluated after 4 weeks
In short: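 Compounds sprayed as aqueous solution from acetone/Emulsogen EL/NMP/dipropylene glycol monomethyl ether/X-77 formulation onto soil right after sowing (pre-emergence) or onto 8–9-day plants (post-emergence); greenhouse-grown. Damage scored 0 (none) to 10 (total) after 4 weeks pre- or 3 weeks post-emergence.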

[2] = system: Monocotyledonous and dicotyledonous test plants; experiment: Example B1 herbicidal action, application post-emergence (Table B1a); type: in vivo; settings: 250 g/ha, evaluated after 3 weeks, scale 0-10
Experimental: Monocotyledonous and dicotyledonous test plants were sown in seed trays in standard soil. Immediately after sowing (pre-emergence) or after 8 to 9 days cultivation (post-emergence), the test compounds were applied by spraying in the form of an aqueous solution derived from the formulation of the technical active ingredient in 0.6 ml acetone and 45 ml formulation solution containing 10.6% Emulsogen EL (CAS RN 61791-12-6), 42.2% N-methylpyrrolidone, 42.2% dipropylene glycol monomethyl ether (CAS RN 34590-94-8) and 0.2% X-77 (CAS RN 11097-66-8). The test plants were then grown in a greenhouse under optimum conditions. After a test duration of 3 weeks (post-emergence) or 4 weeks (pre-emergence), the test was evaluated (10=total damage to plant, 0=no damage to plant).

## Cc1ccccc1C(F)(F)S(=O)(=O)C1=NOC(C)(C)C1 [1.92]
[1]
  herbicidal action (damage rating 0-10), Amaranthus: 10
  herbicidal action (damage rating 0-10), Digitaria: 10
  herbicidal action (damage rating 0-10), Panicum: 10
  herbicidal action (damage rating 0-10), Setaria: 10
  herbicidal action (damage rating 0-10), Sida: 8
[2]
  herbicidal damage rating, Abutilon: 5
  herbicidal damage rating, Amaranthus: 3
  herbicidal damage rating, Digitaria: 8
  herbicidal damage rating, Panicum: 5
  herbicidal damage rating, Setaria: 7
  herbicidal damage rating, Sida: 7

## CC1(C)CC(S(=O)(=O)C(F)(F)c2ccccc2F)=NO1 [1.94]
[1]
  herbicidal action (damage rating 0-10), Amaranthus: 10
  herbicidal action (damage rating 0-10), Digitaria: 10
  herbicidal action (damage rating 0-10), Panicum: 10
  herbicidal action (damage rating 0-10), Setaria: 10
  herbicidal action (damage rating 0-10), Sida: 8
[2]
  herbicidal damage rating, Abutilon: 5
  herbicidal damage rating, Amaranthus: 7
  herbicidal damage rating, Digitaria: 8
  herbicidal damage rating, Panicum: 7
  herbicidal damage rating, Setaria: 8
  herbicidal damage rating, Sida: 0

## CC1(C)CC(S(=O)(=O)C(F)(Cl)c2ccccc2[S+]([O-])C(F)(F)F)=NO1 (stereo not shown) [1.97]
[1]
  herbicidal action (damage rating 0-10), Amaranthus: 8
  herbicidal action (damage rating 0-10), Digitaria: 10
  herbicidal action (damage rating 0-10), Panicum: 10
  herbicidal action (damage rating 0-10), Setaria: 9
  herbicidal action (damage rating 0-10), Sida: 0
[2]
  herbicidal damage rating, Abutilon: 4
  herbicidal damage rating, Amaranthus: 5
  herbicidal damage rating, Digitaria: 8
  herbicidal damage rating, Panicum: 5
  herbicidal damage rating, Setaria: 7
  herbicidal damage rating, Sida: 0

## Cc1ccc(F)c(C(Br)S(=O)(=O)C2=NOC(C)(C)C2)c1F (stereo not shown) [1.102]
[1]
  herbicidal action (damage rating 0-10), Amaranthus: 8
  herbicidal action (damage rating 0-10), Digitaria: 10
  herbicidal action (damage rating 0-10), Panicum: 10
  herbicidal action (damage rating 0-10), Setaria: 9
  herbicidal action (damage rating 0-10), Sida: 2
[2]
  herbicidal damage rating, Abutilon: 0
  herbicidal damage rating, Amaranthus: 0
  herbicidal damage rating, Digitaria: 8
  herbicidal damage rating, Panicum: 5
  herbicidal damage rating, Setaria: 4
  herbicidal damage rating, Sida: 2

## COc1ccccc1C(F)S(=O)(=O)C1=NOC(C)(C)C1 (stereo not shown) [1.104]
[1]
  herbicidal action (damage rating 0-10), Amaranthus: 0
  herbicidal action (damage rating 0-10), Digitaria: 9
  herbicidal action (damage rating 0-10), Panicum: 10
  herbicidal action (damage rating 0-10), Setaria: 8
  herbicidal action (damage rating 0-10), Sida: 3
[2]
  herbicidal damage rating, Abutilon: 3
  herbicidal damage rating, Amaranthus: 0
  herbicidal damage rating, Digitaria: 8
  herbicidal damage rating, Panicum: 7
  herbicidal damage rating, Setaria: 7
  herbicidal damage rating, Sida: 2

## Cc1ccc(F)c(C(F)S(=O)(=O)C2=NOC(C)(C)C2)c1F (stereo not shown) [1.105]
[1]
  herbicidal action (damage rating 0-10), Amaranthus: 10
  herbicidal action (damage rating 0-10), Digitaria: 8
  herbicidal action (damage rating 0-10), Panicum: 10
  herbicidal action (damage rating 0-10), Setaria: 10
  herbicidal action (damage rating 0-10), Sida: 7
[2]
  herbicidal damage rating, Abutilon: 2
  herbicidal damage rating, Amaranthus: 5
  herbicidal damage rating, Digitaria: 8
  herbicidal damage rating, Panicum: 5
  herbicidal damage rating, Setaria: 4
  herbicidal damage rating, Sida: 7

## COc1ccccc1C(F)(F)S(=O)(=O)C1=NOC(C)(C)C1 [1.107]
[1]
  herbicidal action (damage rating 0-10), Amaranthus: 9
  herbicidal action (damage rating 0-10), Digitaria: 7
  herbicidal action (damage rating 0-10), Panicum: 9
  herbicidal action (damage rating 0-10), Setaria: 10
  herbicidal action (damage rating 0-10), Sida: 0
[2]
  herbicidal damage rating, Abutilon: 4
  herbicidal damage rating, Amaranthus: 0
  herbicidal damage rating, Digitaria: 8
  herbicidal damage rating, Panicum: 7
  herbicidal damage rating, Setaria: 5
  herbicidal damage rating, Sida: 5

## Cc1ccc(F)c(C(F)(F)S(=O)(=O)C2=NOC(C)(C)C2)c1F [1.108]
[1]
  herbicidal action (damage rating 0-10), Amaranthus: 10
  herbicidal action (damage rating 0-10), Digitaria: 10
  herbicidal action (damage rating 0-10), Panicum: 10
  herbicidal action (damage rating 0-10), Setaria: 10
  herbicidal action (damage rating 0-10), Sida: 9
[2]
  herbicidal damage rating, Abutilon: 7
  herbicidal damage rating, Amaranthus: 8
  herbicidal damage rating, Digitaria: 8
  herbicidal damage rating, Panicum: 5
  herbicidal damage rating, Setaria: 5
  herbicidal damage rating, Sida: 8

## CC1(C)CC(S(=O)(=O)C(F)(F)c2cc(F)cc3c2OCOC3)=NO1 [1.109]
[1]
  herbicidal action (damage rating 0-10), Amaranthus: 10
  herbicidal action (damage rating 0-10), Digitaria: 10
  herbicidal action (damage rating 0-10), Panicum: 10
  herbicidal action (damage rating 0-10), Setaria: 9
  herbicidal action (damage rating 0-10), Sida: 0
[2]
  herbicidal damage rating, Abutilon: 6
  herbicidal damage rating, Amaranthus: 5
  herbicidal damage rating, Digitaria: 6
  herbicidal damage rating, Panicum: 5
  herbicidal damage rating, Setaria: 3
  herbicidal damage rating, Sida: 2

## CC1(C)CC(S(=O)(=O)C(F)(F)c2cc(F)ccc2F)=NO1 [1.114]
[1]
  herbicidal action (damage rating 0-10), Amaranthus: 10
  herbicidal action (damage rating 0-10), Digitaria: 10
  herbicidal action (damage rating 0-10), Panicum: 10
  herbicidal action (damage rating 0-10), Setaria: 10
  herbicidal action (damage rating 0-10), Sida: 9
[2]
  herbicidal damage rating, Abutilon: 3
  herbicidal damage rating, Amaranthus: 3
  herbicidal damage rating, Digitaria: 8
  herbicidal damage rating, Panicum: 3
  herbicidal damage rating, Setaria: 8
  herbicidal damage rating, Sida: 2

## CC1(C)CC(S(=O)(=O)C(F)(F)c2cc(F)cc(F)c2)=NO1 [1.115]
[1]
  herbicidal action (damage rating 0-10), Amaranthus: 10
  herbicidal action (damage rating 0-10), Digitaria: 10
  herbicidal action (damage rating 0-10), Panicum: 10
  herbicidal action (damage rating 0-10), Setaria: 10
  herbicidal action (damage rating 0-10), Sida: 8
[2]
  herbicidal damage rating, Abutilon: 2
  herbicidal damage rating, Amaranthus: 5
  herbicidal damage rating, Digitaria: 8
  herbicidal damage rating, Panicum: 8
  herbicidal damage rating, Setaria: 7
  herbicidal damage rating, Sida: 0

## CC1(C)CC(S(=O)(=O)C(F)(F)c2cccc(F)c2F)=NO1 [1.116]
[1]
  herbicidal action (damage rating 0-10), Amaranthus: 10
  herbicidal action (damage rating 0-10), Digitaria: 10
  herbicidal action (damage rating 0-10), Panicum: 10
  herbicidal action (damage rating 0-10), Setaria: 10
  herbicidal action (damage rating 0-10), Sida: 7
[2]
  herbicidal damage rating, Abutilon: 5
  herbicidal damage rating, Amaranthus: 5
  herbicidal damage rating, Digitaria: 8
  herbicidal damage rating, Panicum: 7
  herbicidal damage rating, Setaria: 7
  herbicidal damage rating, Sida: 0

## CC1(C)CC(S(=O)(=O)C(F)(F)c2ccccc2-c2ccccc2)=NO1 [1.117]
[1]
  herbicidal action (damage rating 0-10), Amaranthus: 9
  herbicidal action (damage rating 0-10), Digitaria: 10
  herbicidal action (damage rating 0-10), Panicum: 10
  herbicidal action (damage rating 0-10), Setaria: 8
  herbicidal action (damage rating 0-10), Sida: 4
[2]
  herbicidal damage rating, Abutilon: 4
  herbicidal damage rating, Amaranthus: 7
  herbicidal damage rating, Digitaria: 7
  herbicidal damage rating, Panicum: 5
  herbicidal damage rating, Setaria: 6
  herbicidal damage rating, Sida: 6

## CC1(C)CC(S(=O)(=O)C(F)(F)c2ccc(F)cc2F)=NO1 [1.118]
[1]
  herbicidal action (damage rating 0-10), Amaranthus: 10
  herbicidal action (damage rating 0-10), Digitaria: 10
  herbicidal action (damage rating 0-10), Panicum: 10
  herbicidal action (damage rating 0-10), Setaria: 10
  herbicidal action (damage rating 0-10), Sida: 8
[2]
  herbicidal damage rating, Abutilon: 5
  herbicidal damage rating, Amaranthus: 3
  herbicidal damage rating, Digitaria: 8
  herbicidal damage rating, Panicum: 5
  herbicidal damage rating, Setaria: 7
  herbicidal damage rating, Sida: 3

## CCOC(=O)c1ccc(C(F)(F)S(=O)(=O)C2=NOC(C)(C)C2)c(F)c1 [1.120]
[1]
  herbicidal action (damage rating 0-10), Amaranthus: 8
  herbicidal action (damage rating 0-10), Digitaria: 6
  herbicidal action (damage rating 0-10), Panicum: 8
  herbicidal action (damage rating 0-10), Setaria: 0
  herbicidal action (damage rating 0-10), Sida: 5
[2]
  herbicidal damage rating, Abutilon: 7
  herbicidal damage rating, Amaranthus: 0
  herbicidal damage rating, Digitaria: 8
  herbicidal damage rating, Panicum: 3
  herbicidal damage rating, Setaria: 4
  herbicidal damage rating, Sida: 0

## CC1(C)CC(S(=O)(=O)C(F)(Cl)c2cc(F)cc(F)c2)=NO1 (stereo not shown) [1.125]
[1]
  herbicidal action (damage rating 0-10), Amaranthus: 10
  herbicidal action (damage rating 0-10), Digitaria: 10
  herbicidal action (damage rating 0-10), Panicum: 10
  herbicidal action (damage rating 0-10), Setaria: 10
  herbicidal action (damage rating 0-10), Sida: 7
[2]
  herbicidal damage rating, Abutilon: 0
  herbicidal damage rating, Amaranthus: 0
  herbicidal damage rating, Digitaria: 8
  herbicidal damage rating, Panicum: 7
  herbicidal damage rating, Setaria: 5
  herbicidal damage rating, Sida: 3

## CC1(C)CC(S(=O)(=O)C(F)(Cl)c2cc(F)ccc2F)=NO1 (stereo not shown) [1.126]
[1]
  herbicidal action (damage rating 0-10), Amaranthus: 10
  herbicidal action (damage rating 0-10), Digitaria: 10
  herbicidal action (damage rating 0-10), Panicum: 10
  herbicidal action (damage rating 0-10), Setaria: 10
  herbicidal action (damage rating 0-10), Sida: 8
[2]
  herbicidal damage rating, Abutilon: 3
  herbicidal damage rating, Amaranthus: 0
  herbicidal damage rating, Digitaria: 8
  herbicidal damage rating, Panicum: 5
  herbicidal damage rating, Setaria: 5
  herbicidal damage rating, Sida: 5
